In data set [1] the test system is E-3b, clinical isolated drug-resistant strain ESBL. As to conditions: strain E-3b (ESBL). The text has this:
(§1) With respect to the determination of antibacterial activity and antifungal activity of the antibacterial polypeptide compounds, the bacterial strains employed included: E. coli (ATCC 25922), E. coli (ATCC 43837), Pseudomonas aeruginosa (ATCC 27853), Klebsiella pneumoniae (ATCC 700603), Cronobacter sakazakii (ATCC 29544), Staphylococcus aureus (ATCC 29213), Bacillus subtilis (ATCC 23857) and Staphylococcus epidermidis (ATCC 12228); and the fungal strains employed included Candida albicans (ATCC 14053), Candida glabrata (ATCC 2001), Candida parapsilosis (ATCC 22019), Candida tropicalis (ATCC 750) and Candida krusei (ATCC 6258), all of which were standard strains from American Type Culture Collection. In addition, drug-resistant strains S-1a, S-2a, S-3a, S-4a, E-1b, E-2b, E-3b, E-4b, E-5b, P-1c, P-2c, P-3c, P-4c, P-5c, and clinically isolated fungal strains Candida glabrata 2-1 and Candida albicans 14-1, 14-2 and 14-3 were employed, all which were clinically isolated.
(§2) Simply, a proper amount of the cryopreserved bacterium or fungus was added to fresh MH/SD medium, and cultured on a shaker overnight at 180 rpm at 37° C. The obtained cells were seeded again and cultured on a shaker for 4-5 hours to obtain cells in logarithmic phase. The resulting cells were added to a 96-well plate (1×10^5 CFU/ml, 100 μL/well), and then 100 μL of polypeptide with different concentrations (1-256 μM) twice the final concentrations was added to corresponding well according to the 2-fold serial dilution method. The fresh medium was used as a negative control, which was prepared in triplicate for each concentration. After dosing, the 96-well plate was placed in an incubator at constant 37° C. and humidity for 12 hours to observe the results. According to naked eye observations, the concentration of the compound in the first transparent well following the turbid wells was recorded as the MIC of the compound, namely, the MIC value of the compound to the bacterium or fungus.

Data set [2] deals with E-4b, clinical isolated drug-resistant strain ESBL. As to conditions: strain E-4b (ESBL).
From the text: as §1, §2

The test system of data set [3] is E-5b, clinical isolated drug-resistant strain ESBL. Particulars: strain E-5b (ESBL).
From the text: as §1, §2

Data set [4] concerns P-4c, clinical isolated drug-resistant strain PA. As to conditions: strain P-4c (PA).
From the text: as §1, §2

In data set [5] the test system is E-2b, clinical isolated drug-resistant strain ESBL. Particulars: strain E-2b (ESBL).
From the text: as §1, §2

Data set [6] has as its system P-1c, clinical isolated drug-resistant strain PA. Particulars: strain P-1c (PA).
From the text: as §1, §2

Data set [7] has as its system E-1b, clinical isolated drug-resistant strain ESBL. As to conditions: strain E-1b (ESBL).
From the text: as §1, §2

In data set [8] the test system is P-2c, clinical isolated drug-resistant strain PA. As to conditions: strain P-2c (PA).
From the text: as §1, §2

Data set [9] relates to P-3c, clinical isolated drug-resistant strain PA. As to conditions: strain P-3c (PA).
From the text: as §1, §2

The test system of data set [10] is P-5c, clinical isolated drug-resistant strain PA. As to conditions: strain P-5c (PA).
From the text: as §1, §2

The nature of another data set: Acute toxicity in mice. More on the design: species or system Kunming mice. Particulars: mouse, in vivo, ip, intraperitoneal injection, Karber method. The method, then: Acute toxicity of the compounds was determined by measuring the acute toxicity in mice with the compounds.
Taking compounds 2, 8, 9, 13 and 15 of the present invention as examples, […]. The mice used in this test were Kunming mice, which were placed in constant-temperature environment (22±1° C.) and could freely obtain water and food. Simply, 132 healthy Kunming mice were randomly divided into 11 groups, with 12 mice in each group (half male and half female), wherein, 5 groups were intraperitoneally injected with 0.2 ml of the compounds of different doses (100-1000 mg/kg), and the control group was intraperitoneally injected with normal saline. In this experiment, melittin was used as a reference control, and the other 5 groups were intraperitoneally injected with melittin of different doses (10-32 mg/kg). The state of mice was observed and recorded after 2 hours of administration, and then observed twice a day for 14 days, and the survival rates of the mice were recorded.

The test system of data set [11] is human embryonic renal epithelial cell HEK293. The experiment in a line: Cytotoxicity, MTT colorimetry. Format: cell-based. As for the experimental part: (§3) For cytotoxicity determination, the MTT colorimetry was used to evaluate the effects of the compounds on the proliferation of human cervical cancer cell Hela, human embryonic renal epithelial cell HEK293 and mouse mononuclear macrophage RAW264.7.
(§4) Taking compounds 2, 8, 9, 13 and 15 of the present invention as examples, the cytotoxicity of the antibacterial polypeptide compounds was analyzed. Three cell lines were employed for the present invention, namely human cervical cancer cell Hela, human embryonic renal epithelial cell HEK293 and mouse mononuclear macrophage RAW264.7. Hela cells were cultured in RPMI 1640 medium with 10% newborn calf serum, HEK293 cells and RAW264.7 cells were cultured in DMEM medium with 10% fetal bovine serum. Simply, cells (1×10^4 cells/well) were inoculated to a 96-well plate and incubated in an incubator set to 5% CO2 at 37° C. After 24 hours, compounds of different concentrations were added and incubated in the 5% CO2 incubator. After 24 hours, 20 μL of MTT solution with a concentration of 5 mg/mL was added to each well and incubated for 4 hours. After that, the medium was removed with a pipet, and 150 μL of DMSO added to dissolve the purple-blue formazan crystals. The solution was shaken in an oscillator for 5 mins before detecting the absorbance value at 570 nm using the ELISA reader, and then the survival rate was calculated with the formula: (OD dosing group/OD control group)×100% (n=3).

Data set [12] relates to mouse mononuclear macrophage RAW264.7. Nature of the data set: Cytotoxicity, MTT colorimetry. Format: cell-based. As for the experimental part: as §3, §4
The test system of data set [13] is human cervical cancer cell Hela. The experiment in a line: Cytotoxicity, MTT colorimetry. Format: cell-based. As for the experimental part:
as §3, §4

For data set [14], the system named is Staphylococcus epidermidis (ATCC 12228). Particulars: ATCC 12228.
From the text: as §1, §2

Data set [15] has as its system S-2a, clinical isolated drug-resistant strain MRSA. As to conditions: strain S-2a (MRSA).
From the text: as §1, §2

For the next data set, the system named is C. parapsilosis ATCC2001. As to conditions: ATCC2001.
From the text: as §1, §2

Data set [16] concerns Pseudomonas aeruginosa (ATCC 27853). As to conditions: standard strain.
From the text: as §1, §2

Data set [17] concerns Staphylococcus aureus (ATCC 29213). As to conditions: ATCC 29213.
From the text: as §1, §2

A further data set relates to E. coli (ATCC 25922). Particulars: ATCC 25922.
From the text: as §1, §2

Another data set concerns C. tropicalis ATCC750. Particulars: ATCC750.
From the text: as §1, §2

Data set [18] deals with S-4a, clinical isolated drug-resistant strain MRSA. As to conditions: strain S-4a (MRSA).
From the text: as §1, §2

In data set [19] the test system is S-1a, clinical isolated drug-resistant strain MRSA. As to conditions: strain S-1a (MRSA).
From the text: as §1, §2

The test system of another data set is C. glabrata ATCC22019. Particulars: ATCC22019.
From the text: as §1, §2

For another data set, the system named is C. albicans ATCC14053. As to conditions: ATCC14053.
From the text: as §1, §2

Data set [20] deals with S-3a, clinical isolated drug-resistant strain MRSA. As to conditions: strain S-3a (MRSA).
From the text: as §1, §2

A further data set relates to C. krusei ATCC6258. As to conditions: ATCC6258.
From the text: as §1, §2

The test system of data set [21] is Bacillus subtilis (ATCC 23857). Particulars: ATCC 23857.
From the text: as §1, §2

The test system of data set [22] is Cronobacter sakazakii (ATCC 29544). Particulars: ATCC 29544.
From the text: as §1, §2

The text below walks through data of patent US20250345492A1, “AN ANTIBACTERIAL POLYPEPTIDE COMPOUND, A MEDICAL DEVICE, HYDROGEL AND USE THEREOF” (priority 2020, published 2025).

Ends that are not written are not given here.

Broadly, the MIC is the smallest concentration in the dilution series that meets the test's criterion for growth inhibition. Low values mean inhibition by little substance, high ones a need for much substance. By LD50 is commonly meant the dose at which mortality reaches 50%. A lower LD50 goes with greater toxicity.

Regarding gentamicin [reference compound], the MIC in [1], in data set [2], in data set [3], in data set [4], in data set [5] and in data set [6] was 50 µM throughout. Also, the minimum inhibitory concentration (MIC) in data set [7] turned out to be 50 µM; in data set [8], 50 µM; in [9], 25 µM; in [10] it was 50 µM.

In the case of `CC[C@H](C)[C@H](NC(=O)CN)C(=O)NCC(=O)N[C@@H](C)C(=O)N[C@H](C(=O)N[C@@H](CC(C)C)C(=O)N[C@@H](CCCCN)C(=O)N[C@H](C(=O)N[C@@H](CC(C)C)C(=O)N[C@H](C(=O)N[C@H](C(=O)NCC(=O)N[C@@H](CC(C)C)C(=O)N1CCC[C@H]1C(=O)N[C@@H](C)C(=O)N[C@@H](CC(C)C)C(=O)N[C@H](C(=O)N[C@@H](CO)C(=O)N[C@@H](Cc1c[nH]c2ccccc12)C(=O)N[C@H](C(=O)N[C@@H](CCCCN)C(=O)N[C@@H](CCCNC(=N)N)C(=O)N[C@@H](CCCCN)C(=O)N[C@@H](CCCNC(=N)N)C(=O)N[C@@H](CCC(N)=O)C(=O)N[C@@H](CCC(N)=O)C(N)=O)[C@@H](C)CC)[C@@H](C)CC)[C@@H](C)O)[C@@H](C)O)C(C)C)C(C)C` [melittin magainin, melittin, reference compound], the LD50 at 14 days in the data set “Acute toxicity in mice” (both sexes, Kunming) was 20 mg/kg.

In turn, PWRLRLRL-NH2 [Compound 15] gave a median lethal dose (LD50) in “Acute toxicity in mice” of more than 1000 mg/kg. The “effect on proliferation (inhibitory activity)” value in [11], in data set [12] and in [13] was “no inhibitory activity” throughout. In addition, in data set [14], the “MIC S. epidermidis ATCC12228” value is 8 µM. The minimal inhibitory concentration (MIC) was determined as 4 µM in [1]; 8 µM in [15]; 4 µM in data set [2]; 8 µM in data set [18]; 8 µM in data set [19]; 4 µM in data set [3]. Besides, the MIC in data set [4] came out at 8 µM; in data set [5], 4 µM; in [20], 8 µM; in [6], 8 µM; in data set [7], 4 µM; in [8], 8 µM. The minimum inhibitory concentration (MIC) in data set [9] and in data set [10] was 8 µM each time. In addition, the “MIC C. parapsilosis ATCC2001” value in the data set on C. parapsilosis ATCC2001 is 4 µM. Further, in data set [16], the “MIC P. aerugmosa ATCC27853” value was 8 µM. Also, the “MIC S. aureus ATCC29213” value in [17] is 8 µM. In addition, the “MIC C. coli ATCC25922” value with E. coli (ATCC 25922) amounted to 4 µM. Also, the “MIC C. tropicalis ATCC750” value against C. tropicalis ATCC750 amounted to 4 µM. Besides, in the data set with C. glabrata ATCC22019, the “MIC C. glabrata ATCC22019” value stood at 4 µM. The “MIC C. albicans ATCC14053” value in the data set with C. albicans ATCC14053 worked out at 4 µM. For the same molecule, the “MIC C. krusei ATCC6258” value against C. krusei ATCC6258 turned out to be 16 µM. Also, the “MIC B. subtilis ATCC23857” value in data set [21] worked out at 4 µM. In data set [22], the “MIC C. sakazakii ATCC29544” value was 8 µM.

In the data set “Acute toxicity in mice”, PWRLRLHL-NH2 [Compound 13] had a median lethal dose (LD50) of more than 1000 mg/kg. Moreover, the “effect on proliferation (inhibitory activity)” value in data set [11], in data set [12] and in data set [13] was “no inhibitory activity” in each case. The “MIC S. epidermidis ATCC12228” value in data set [14] is 16 µM. Moreover, the minimal inhibitory concentration (MIC) in data set [1] is 4 µM; in data set [15], 32 µM; in data set [2], 8 µM; in data set [18] it was 32 µM; in data set [19], 32 µM; in data set [3], 4 µM. Besides, the minimum inhibitory concentration (MIC) worked out at 4 µM in data set [4]; 8 µM in [5]; 32 µM in data set [20]; 8 µM in data set [6]; 8 µM in [7]; 4 µM in data set [8]. For the same molecule, the MIC in [9] and in [10] was 4 µM in each case. In addition, the “MIC C. parapsilosis ATCC2001” value against C. parapsilosis ATCC2001 was found to be 8 µM. Moreover, the “MIC P. aerugmosa ATCC27853” value in data set [16] came to 4 µM. Moreover, the “MIC S. aureus ATCC29213” value in [17] amounted to 32 µM. The “MIC C. coli ATCC25922” value in the data set with E. coli (ATCC 25922) turned out to be 8 µM. Also, in the data set with C. tropicalis ATCC750, the “MIC C. tropicalis ATCC750” value was 8 µM. Also, the “MIC C. glabrata ATCC22019” value against C. glabrata ATCC22019 stood at 8 µM. Besides, the “MIC C. albicans ATCC14053” value in the data set with C. albicans ATCC14053 was found to be 32 µM. Further, the “MIC C. krusei ATCC6258” value against C. krusei ATCC6258 worked out at 32 µM. In addition, in data set [21], the “MIC B. subtilis ATCC23857” value stood at 8 µM. Also, in data set [22], the “MIC C. sakazakii ATCC29544” value amounted to 8 µM.
